From PubChem BioAssay AID248 (DTP/NCI, 2004)
Toxic doses and inconclusive results are not listed. Rule as the data show it: active = T/C of 150% or more; inactive = T/C below 125%.

Tested on: L1210 leukemia ip in BDF1 mice, survival T/C
Assay: NCI In Vivo Anticancer Drug Screen. Data for tumor model L1210 Leukemia (intraperitoneal) in B6D2F1 (BDF1) mice
Conditions: endpoint: mean survival time, higher = longer survival
Summary of the method: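 Mice bearing the transplanted tumor received compound or vehicle. Survival of the treated group was divided by that of the vehicle-treated control group to give the ratio.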

[1] = dose: 100.0 mg/kg/injection, schedule: Q04DX003 (ip), vehicle: saline with Tween-80
[2] = dose: 200.0 mg/kg/injection, schedule: Q04DX003 (ip), vehicle: saline with Tween-80
[3] = dose: 400.0 mg/kg/injection, schedule: Q04DX003 (ip), vehicle: saline with Tween-80
[4] = dose: 25.0 mg/kg/injection, schedule: Q04DX003 (ip), vehicle: saline
[5] = dose: 50.0 mg/kg/injection, schedule: Q04DX003 (ip), vehicle: saline
[6] = dose: 100.0 mg/kg/injection, schedule: Q04DX003 (ip), vehicle: saline
[7] = dose: 100.0 mg/kg/injection, schedule: Q01DX009 (ip), vehicle: Klucel (hydroxypropylcellulose) (HPC)
[8] = dose: 100.0 mg/kg/injection, schedule: Q01DX001 (ip), vehicle: Klucel (hydroxypropylcellulose) (HPC)
[9] = dose: 200.0 mg/kg/injection, schedule: Q01DX001 (ip), vehicle: Klucel (hydroxypropylcellulose) (HPC)
[10] = dose: 400.0 mg/kg/injection, schedule: Q01DX001 (ip), vehicle: Klucel (hydroxypropylcellulose) (HPC)

Measured: T/C

CCOC(=O)c1[nH]c(C)c(CCCC(=O)O)c1C
inactive: dose: 75.0 mg/kg/injection, schedule: Q01DX001 (ip), vehicle: acetone 102 % of control | dose: 150.0 mg/kg/injection, schedule: Q01DX001 (ip), vehicle: acetone 104 % of control

S=c1[nH]cc2cnccn12
inactive: dose: 100.0 mg/kg/injection, schedule: Q01DX009 (ip), vehicle: saline with Tween-80 103 % of control | [1] 98 % of control | dose: 200.0 mg/kg/injection, schedule: Q01DX009 (ip), vehicle: saline with Tween-80 100 % of control | [2] 100 % of control | [3] 89 % of control

O=C(CBr)Nc1ccc(C(=O)O)c(O)c1
inactive: dose: 12.5 mg/kg/injection, schedule: Q04DX003 (ip), vehicle: Klucel (hydroxypropylcellulose) (HPC) 103 % of control | dose: 25.0 mg/kg/injection, schedule: Q04DX003 (ip), vehicle: Klucel (hydroxypropylcellulose) (HPC) 92 % of control | dose: 50.0 mg/kg/injection, schedule: Q04DX003 (ip), vehicle: Klucel (hydroxypropylcellulose) (HPC) 92 % of control

CC(O)C[P+](c1ccccc1)(c1ccccc1)c1ccccc1 (configuration not stated)
inactive: dose: 100.0 mg/kg/injection, schedule: Q01DX001 (ip), vehicle: saline 110 % of control | dose: 200.0 mg/kg/injection, schedule: Q01DX001 (ip), vehicle: saline 96 % of control

N#Cc1ccc(Oc2ccc(C#N)cc2)cc1
inactive: [1] 100 % of control | [2] 97 % of control | [3] 101 % of control

Cc1ccc(CCOC(=O)c2cc([N+](=O)[O-])cc([N+](=O)[O-])c2)cc1
inactive: dose: 75.0 mg/kg/injection, schedule: Q01DX001 (ip), vehicle: carboxymethylcellulose (CMC) 94 % of control | dose: 150.0 mg/kg/injection, schedule: Q01DX001 (ip), vehicle: carboxymethylcellulose (CMC) 94 % of control | dose: 300.0 mg/kg/injection, schedule: Q01DX001 (ip), vehicle: carboxymethylcellulose (CMC) 90 % of control

OCCN1CCN(CCCN2c3ccccc3CCc3ccccc32)CC1
inactive: dose: 12.5 mg/kg/injection, schedule: Q04DX003 (ip), vehicle: saline 98 % of control | dose: 15.62 mg/kg/injection, schedule: Q04DX003 (ip), vehicle: saline 100 % of control | [4] 106 % of control | dose: 31.25 mg/kg/injection, schedule: Q04DX003 (ip), vehicle: saline 103 % of control | [5] 104 % of control | dose: 62.5 mg/kg/injection, schedule: Q04DX003 (ip), vehicle: saline 105 % of control | [6] 104 % of control | dose: 125.0 mg/kg/injection, schedule: Q04DX003 (ip), vehicle: saline 92 % of control

CC(C)(C)SCC(NC(=O)OCc1ccccc1)C(=O)O (configuration not stated)
inactive: dose: 50.0 mg/kg/injection, schedule: Q01DX009 (ip), vehicle: Klucel (hydroxypropylcellulose) (HPC) 100 % of control | dose: 75.0 mg/kg/injection, schedule: Q01DX001 (ip), vehicle: Klucel (hydroxypropylcellulose) (HPC) 91 % of control | [7] 89 % of control | dose: 150.0 mg/kg/injection, schedule: Q01DX001 (ip), vehicle: Klucel (hydroxypropylcellulose) (HPC) 94 % of control | dose: 300.0 mg/kg/injection, schedule: Q01DX001 (ip), vehicle: Klucel (hydroxypropylcellulose) (HPC) 94 % of control

CC(C)CCCC(C)C1CCC2C3CC(=O)C45CC4CCC5(C)C3CCC12C (configuration not stated)
inactive: dose: 100.0 mg/kg/injection, schedule: Q04DX003 (ip), vehicle: other 97 % of control | dose: 200.0 mg/kg/injection, schedule: Q04DX003 (ip), vehicle: other 102 % of control | dose: 400.0 mg/kg/injection, schedule: Q04DX003 (ip), vehicle: other 108 % of control

CCOC(=O)/C(O)=C\c1cc(OC)n[n+]([O-])c1Cl
inactive: dose: 25.0 mg/kg/injection, schedule: Q04DX002 (ip), vehicle: saline with Tween-80 102 % of control | dose: 50.0 mg/kg/injection, schedule: Q04DX002 (ip), vehicle: saline with Tween-80 98 % of control | dose: 100.0 mg/kg/injection, schedule: Q04DX002 (ip), vehicle: saline with Tween-80 102 % of control

CCOC(=O)C(c1cccc(OC)c1)C1(C(=O)OCC)CC2(CCC1=O)OCCO2 (configuration not stated)
inactive: [7] 93 % of control | dose: 200.0 mg/kg/injection, schedule: Q01DX009 (ip), vehicle: Klucel (hydroxypropylcellulose) (HPC) 95 % of control | dose: 400.0 mg/kg/injection, schedule: Q01DX009 (ip), vehicle: Klucel (hydroxypropylcellulose) (HPC) 88 % of control

COC1OC2COC(c3ccccc3)OC(OC)(C2)C1NC(C)=O (configuration not stated)
inactive: [8] 102 % of control | [9] 101 % of control | [10] 98 % of control

CC[CH2][Pb]([CH2]CC)([CH2]CC)[O]C(=O)C(F)(F)F
inactive: dose: 12.5 mg/kg/injection, schedule: Q04DX002 (ip), vehicle: Klucel (hydroxypropylcellulose) (HPC) 107 % of control | dose: 25.0 mg/kg/injection, schedule: Q04DX002 (ip), vehicle: Klucel (hydroxypropylcellulose) (HPC) 95 % of control

CN=C(NN)NN
inactive: dose: 2.5 mg/kg/injection, schedule: Q01DX009 (ip), vehicle: saline 106 % of control | dose: 5.0 mg/kg/injection, schedule: Q01DX009 (ip), vehicle: saline 95 % of control | dose: 5.0 mg/kg/injection, schedule: Q04DX003 (ip), vehicle: saline 95 % of control | dose: 10.0 mg/kg/injection, schedule: Q01DX001 (ip), vehicle: saline 102 % of control | dose: 10.0 mg/kg/injection, schedule: Q01DX009 (ip), vehicle: saline 97 % of control | dose: 10.0 mg/kg/injection, schedule: Q04DX003 (ip), vehicle: saline 103 % of control | dose: 20.0 mg/kg/injection, schedule: Q01DX001 (ip), vehicle: saline 103 % of control | dose: 20.0 mg/kg/injection, schedule: Q04DX003 (ip), vehicle: saline 90 % of control

CCN(CC)C(=O)C1C=C2c3cccc4c3c(c(Br)n4C)CC2N(C)C1 (configuration not stated)
inactive: dose: 12.5 mg/kg/injection, schedule: Q01DX009 (ip), vehicle: saline 102 % of control | dose: 25.0 mg/kg/injection, schedule: Q01DX009 (ip), vehicle: saline 120 % of control | [4] 103 % of control | dose: 50.0 mg/kg/injection, schedule: Q01DX009 (ip), vehicle: saline 112 % of control | [5] 98 % of control | dose: 100.0 mg/kg/injection, schedule: Q01DX009 (ip), vehicle: saline 107 % of control | [6] 104 % of control | dose: 200.0 mg/kg/injection, schedule: Q04DX003 (ip), vehicle: saline 106 % of control

CCCCCCCCOc1ccc(C(c2ccccc2)(c2ccccc2)c2ccccc2)cc1
inactive: [8] 90 % of control | [9] 89 % of control | [10] 89 % of control

CCNC(=O)N(O)C1(C#N)CCCCC1
inactive: dose: 100.0 mg/kg/injection, schedule: Q01DX001 (ip), vehicle: other 98 % of control | dose: 200.0 mg/kg/injection, schedule: Q01DX001 (ip), vehicle: other 96 % of control | dose: 400.0 mg/kg/injection, schedule: Q01DX001 (ip), vehicle: other 98 % of control
